Patent publication US11376247B2, “Tyrosine kinase inhibitors regenerate non-cancerous tissue after cancer therapy” (THE REGENTS OF THE UNIVERSITY OF COLORADO, A BODY CORPORATE, priority 2017, dated 2022)

Tests used:
[1] = system: SMG acinar cells; assay: Salivary gland histology (H&E, AQPN5 immunohistochemistry) 150 days after IR; assay type: in vivo, mice; settings: 15 Gy IR, continuous dasatinib
Description: The star indicates time of IR treatment; while TKI delivery is indicated by the filled circles and arrows indicate time of saliva collection. Mice were dosed 1 hour prior and 3 hours post IR (pre/post), or pre/post plus twice a week for the duration of the experiment. Saliva production was assayed prior to IR (day 0) and at 30, 60, 90, 120 and 150 days after IR. Mice received vehicle alone, 15 Gy IR plus vehicle, or IR plus dasatinib as indicated. […] Salivary glands from mice in each group (n=2) were removed, formalin fixed and paraffin embedded. Immunohistochemistry for AQPN5 and H&E staining was performed on salivary glands from each mouse. […] Images were captured using an Olympus BX51 scope and Olympus DP72 camera with a 20× objective. […]
For tissue analysis, salivary glands were formalin fixed, paraffin embedded, and sectioned at […]. Tissue sections were stained with haematoxylin-eosin (H&E) and aquaporin 5 (AQPN5) was detected by immunohistochemistry (Abcam). Stained slides were archived and analyzed using the Aperio Digital Pathology System and ImageScope software (Leica Biosystems). For AQPN5, the number of positive stained pixels was quantified using the Positive Pixel algorithm in three representative sections, cut 50 micrometers apart, of both full submandibular salivary glands from two mice per treatment group, for a total of […] per group. […]

[2] = system: salivary gland function; assay: Saliva production in mice after single dose head and neck IR; assay type: in vivo
Description: The star indicates time of IR treatment. Three TKI dosing regimens were used, where times of delivery is indicated by the filled circles. Mice were treated with the specific TKI 1 hour prior to delivery of IR (pre), 1 hour prior and 3 hours post IR (pre/post), or 3 and 6 hours post (post/post). Saliva production was assayed prior to IR (day 0) and at 60 days after IR as described in Examples. […] Saliva was collected […]. as described in Examples. Salivary production (saliva weight/animal weight) for each cohort of mice was normalized against the saliva production for vehicle treated mice to generate the data shown.
The star indicates time of IR treatment; while TKI delivery is indicated by the filled circles and arrows indicate time of saliva collection. Mice were dosed 1 hour prior and 3 hours post IR (pre/post), or pre/post plus twice a week for the duration of the experiment. Saliva production was assayed prior to IR (day 0) and at 30, 60, 90, 120 and 150 days after IR. Mice received vehicle alone, 15 Gy IR plus vehicle, or IR plus dasatinib as indicated. Saliva production (saliva weight/animal weight) for each cohort of mice was normalized against the production for vehicle-treated mice to generate the data shown in FIG. 3B. […] Salivary glands from mice in each group (n=2) were removed, formalin fixed and paraffin embedded. Immunohistochemistry for AQPN5 and H&E staining was performed on salivary glands from each mouse. […] Images were captured using an Olympus BX51 scope and Olympus DP72 camera with a 20× objective. Solid arrows indicate acinar cells while dashed arrows mark salivary gland ducts.
The schematic in FIG. 2A depicts the 3 dosing regimens used for the experiments in FIG. 2.
(§1) C57Bl/6 and athymic nude female mice were purchased from Jackson Laboratories (Bar Harbor, Me., USA). For single dose IR, mice were anesthetized by intraperitoneal (i.p.) injection of […] Avertin (Sigma), immobilized within a 50-mL conical tube, and a single dose of IR (10 or 15 Gy) was delivered to the head and neck using a Caesium-137 source. For fractionated IR, mice received 5 fractions of 6 Gy (tumor study) or 4 Gy (saliva production) on 5 consecutive days.
Saliva was collected immediately following i.p. injection of 0.1 mg/kg carbachol (Sigma) in saline (0.9% NaCl). Whole saliva was collected for 3 mins from the lower cheek pouch using a suction device and expressed as mg (saliva)/g (mouse weight).

[3] = system: FaDu derived xenograft tumors; assay: FaDu flank xenograft tumor growth with fractionated IR; assay type: in vivo, nude mice
Description: as §1

[4] = system: ParC5 cells; assay: IR-induced apoptosis, caspase-3/7 activity in salivary gland acinar cells; assay type: cell-based, rat; settings: TKI pretreatment 30 min, 10 Gy IR, 18 hours after IR
Description: Whole cell lysates were resolved with SDS-PAGE and analyzed using phospho-specific antibodies that recognize PKC-delta pY64, pY155 or pT505. Membranes were stripped and probed for total PKC-delta and actin to determine loading. Each experiment was done a minimum of three times; representative immunoblots are shown. […] Caspase-3/7 activity was assayed as described in the Examples. Data shown is the average of triplicate samples from a representative experiment plus and minus the S.D. (error bars). The experiment was repeated three times, *=p<0.05 for caspase activity compared to cells expressing shScr. An immunoblot showing depletion of PKC-delta is shown below. […] The data are the average of triplicate measurements from a representative experiment plus the S.D. (error bars). Each experiment was repeated three times. *=p<0.05 for caspase activity compared to cells treated with IR alone. […] Inhibition of c-Src and c-Abl was determined by probing for their respective activation sites pY416 (c-Src) and pY412 (c-Abl). […]
Phosphorylation of PKC-delta at T505 is seen within 1 hour after IR, while phosphorylation at Y64 and Y155 are detectable by 2 hours post IR and continue to increase until at least 6 hours (FIG. 1A). […] Active caspase-3/7 was detected using the Caspase-3/7 Cellular Activity Assay Kit PLUS (Biomol, Farmingdale, N.Y.) according to the manufacturer's instructions.

[5] = system: PKC-delta, c-Src, c-Abl in ParC5 cells; assay: Immunoblot for PKC-delta pY64/pY155, c-Src pY416 and c-Abl pY412 after H2O2; assay type: cell-based, rat; settings: TKI 30 min, then 5 mM H2O2 30 min
[6] = system: PKC-delta; settings: in response to DNA damaging agents; previously shown; cited from earlier work

| SMILES | AQPN5 staining in the SMGs, % of vehicle treated mice [1] [%] | saliva production, % of vehicle treated controls ([2]; 15 Gy IR, dasatinib 20 mg/kg pre/post, 60 days post IR (FIG. 2B)) [%] | saliva production, % of vehicle treated mice ([2]; 15 Gy IR, dasatinib pre/post only, 30 and 60 days (FIG. 3B)) [%] | saliva production, % of vehicle treated controls ([2]; 15 Gy IR, dasatinib pre/post plus twice a week (continual), 90 days) [%] | saliva production, % of vehicle treated controls ([2]; 15 Gy IR, dasatinib pre/post plus twice a week (continual), 120 days) [%] | saliva production, % of vehicle treated controls ([2]; 15 Gy IR, dasatinib pre/post plus twice a week (continual), 150 days) [%] | protection of salivary gland function compared to vehicle only treated mice ([2]; IR plus dasatinib, all 3 protocols (pre, pre/post, post/post), 60 days (FIG. 2D)) [%] | tumor growth, TKI added to fractionated IR ([3]; 5 x 6 Gy IR, dasatinib 20 mg/kg or imatinib 50 mg/kg pre/post each fraction) | tumor growth, TKI alone compared to respective controls ([3]; dasatinib 20 mg/kg or imatinib 50 mg/kg alone, no IR) | saliva production, % of vehicle control ([2]; IR plus imatinib, one dose prior to IR (pre), 60 days (FIG. 2E)) [%] | IR-induced apoptosis (caspase-3/7 activity) [4] | inhibition of Y155 versus Y64 phosphorylation of PKC-delta [5] | inhibition of c-Abl versus c-Src [5] | phosphorylation of PKC-delta at Y64 and Y155, nuclear translocation of PKC-delta, and apoptosis [6] |
| --- | --- | --- | --- | --- | --- | --- | --- | --- | --- | --- | --- | --- | --- | --- |
| Cc1nc(Nc2ncc(C(=O)Nc3c(C)cccc3Cl)s2)cc(N2CCN(CCO)CC2)n1 [dasatinib] | 93 | 65 | 70 | 74 | 69 | 82 | ~100 | – | – | – | – | – | – | – |
| Cc1ccc(NC(=O)c2ccc(CN3CCN(C)CC3)cc2)cc1Nc1nccc(-c2cccnc2)n1 [imatinib] | – | – | – | – | – | – | – | no effect on tumor growth | trend towards reduced tumor growth | 63 | inhibits IR-induced apoptosis | slightly more potent inhibitors of Y155 phosphorylation than Y64 phosphorylation | more potent inhibition of c-Abl than c-Src | block |
